In patent US20130079309A1, “Method Of Treating Acute Lung Injury Using Sphingosine 1 Phosphate Analogs Or Sphingosine 1 Phosphate Receptor Agonists” (The Board of Trustees of the University of Illinois, priority 2010, published 2013):

How the values were obtained:
[1] = biological target: T1, S1P receptor 1 (S1PR1) (Homo sapiens, UniProt P21453); experiment: Ubiquitination of S1PR1 in HPAEC (immunoprecipitation, ubiquitin Ab); conditions: for ubiquitination of S1PR1 at 2 h: 1 μM (SEW2871 10 μM); for ubiquitination of S1PR1 at 1 h: 1 μM
Description: S1PR1 was immunoprecipitated by S1PR1Ab, and ubiquitination of S1PR1 was detected by ubiquitin Ab.

[2] = system: β-arrestin; conditions: 1 μM (SEW2871 10 μM; (S)-FTY720-phosphonate 1, 10, 50 μM), 5 h
Protocol: After another 2 h-incubation with fluorescence substrate, the fluorescence intensity (blue and green channels) were detected and the blue/green emission ratio was used as the activation indicator.

[3] = biological target: T1, S1P receptor 1 (S1PR1); experiment: S1PR1 protein expression in HPAEC by Western blot; type: cell-based; parameters: Cells were collected and S1PR1 expression level was detected by Western blot; endogenous in cells; host or cells: HPAEC (human pulmonary artery endothelial cells); conditions: for S1PR1 expression level compared to control: 1 μM (SEW2871 10 μM), 4 h
Description: Cells were collected and S1PR1 expression level was detected by Western blot.

[4] = system: HPAEC; experiment: Pharmacologic inhibitor effects on barrier enhancement (TER); conditions: 1 μM agonist, 60 min; for % Inhibition of Maximal TER Response (of Agonist-Only Control), PTX: 2-h preincubation 100 ng/ml PTX; for % Inhibition of Maximal TER Response (of Agonist-Only Control), MβCD: 2-h preincubation 2 mM MβCD; for % Inhibition of Maximal TER Response (of Agonist-Only Control), Gen: 30-min preincubation 200 μM genistein
Protocol: Endothelial cells were grown to confluence in polycarbonate wells containing evaporated gold microelectrodes (surface area, 10^−3 cm^2) in series with a large gold counter electrode (1 cm^2) connected to a phase-sensitive lock-in amplifier. Current was applied across the electrodes by a 4,000-Hz AC voltage source with amplitude of 1 V in series with a 1 MΩ resistance to approximate a constant current source (˜1 μA). The in-phase and out-of-phase voltages between the electrodes were monitored in real time with the lock-in amplifier and subsequently converted to scalar measurements of transendothelial impedance, of which resistance was the primary focus. TER was monitored for 30 minutes to establish a baseline resistance (R0) which, for bovine pulmonary endothelium, was typically between 8 to 12×10^3Ω (wells with R0<7×10^3Ω were rejected). As cells adhere and spread out on the microelectrode, TER increases (maximal at confluence), whereas cell retraction, rounding, or loss of adhesion is reflected by a decrease in TER. These measurements provide a highly sensitive biophysical assay that indicates the state of cell shape and focal adhesion. Values from each microelectrode were pooled at discrete time points and plotted versus time as the mean±SE of the mean. TER values from each microelectrode were pooled as discrete time points and plotted versus time as the mean±S.E.M.
In this experiment, confluent HPAEC were plated on gold microelectrodes and then stimulated with 1 μM S1P, FTY720, 1R, 1S, 2R, or 2S after either a 2-h preincubation with 100 ng/ml PTX, 30-min preincubation with 200 μM genistein (Gen), or 2-h preincubation with 2 mM MβCD or their respective vehicle controls. Data were pooled from multiple TER experiments (4-10 independent experiments per condition) and expressed as percentage inhibition of maximal barrier enhancement at 60 min relative to agonist-only control.

[5] = system: LPS-induced lung injury in C57BL/6 mice; experiment: LPS-induced murine lung injury model; conditions: for capillary leak as total BAL protein, relative to PBS control: 1S 0.1-5.0 mg/kg i.p. single dose 1 h after LPS 2.5 mg/kg i.t., FTY720 0.5 mg/kg, S1P 0.026 mg/kg; for peripheral blood leukocyte and lymphocyte levels relative to PBS controls: 18 h after LPS
Protocol: For experiments performed in intact animals, male C57BL/6 mice (8-10 weeks) were anesthetized with intraperitoneal ketamine and acetylpromazine mixture according to the approved protocol. Escherichia coli LPS solution (2.5 mg/kg) or sterile saline was instilled intratracheally via a 20-gauge catheter. Simultaneously, mice received either FTY720 or analogs (in doses: 0.01, 0.1, 0.5, 1, and 5 mg/kg i.p.) or PBS as vehicle. The animals were allowed to recover for 18 h. BAL and lungs were collected and stored at −70° C. for evaluation of lung injury.
Pure BAL fluids prepared for protein measurement or myeloperoxidase activity (MPO) lung homogenates were used to test albumin concentration. The assay was performed in 96-well plastic plates (Nalge Nunc A/S, Roskilde, Denmark). Plates were coated with mouse albumin (Bethyl Lab, Montgomery, Tex.), washed, and blocked. Aliquots (100-μl) of the sample or standard and 100 μl of goat anti-mouse albumin antibody (horseradish peroxidase-conjugated) (1:50,000) were then added, followed by incubation at 37° C. for 1 h. Finally, the substrate 3,3′,5,5′-tetramethylbenzidine was added for 10 min, and the reaction stopped by adding 100 μl of 2 M H2SO4. The absorbance at 450 nm was read on a kinetic microplate reader (Molecular Devices).
Myeloperoxidase (MPO) was isolated and measured from snap-frozen right lungs as follows (see also Remick et al., 1990, Am J Pathol 136: 49-60). The right lung was homogenized in 1 ml of 50 mM potassium phosphate, pH 6.0, with 0.5% hexadecyltrimethylammonium bromide. The resulting homogenate was sonicated and then centrifuged at 12,000 g for 15 min. The supernatant was mixed 1:30 with assay buffer (100 mM potassium phosphate, pH 6.0, 0.005% H2O2, 0.168 mg/ml o-dianisidine hydrochloride), and absorbance read at 490 nm. MPO units were calculated as the change in absorbance with respect to time.
Peripheral blood was examined by the Missouri University Research Animal Diagnostic Laboratory (Columbia, Mo.) for determination of total blood cell counts and differentials in blood samples.
Values are shown as the mean±S.E. Data were analyzed using a standard Student's t test or one-way analysis of variance, groups were compared by Newman-Keuls test, and significance in all cases was defined at p<0.05.

[6] = system: lung vascular leakage in RILI mice; experiment: ViSen FMT lung imaging of intravascular probe extravasation in RILI mice; type: in vivo, mouse; conditions: 0.1 mg/kg, 25 Gy, 6 weeks
Protocol: Lung imaging studies were also performed with assessment of RILI-induced extravasation of an intravascular probe.
To assess microvascular changes associated with RILI in real-time, mice were imaged with ViSen FMT 1500 Quantitative Tomography In Vivo Imaging System. Intergisens^750 NIR (ViSen Medicals, Bedford, Mass.) was used as a probe, which targets the vasculature as a selective non-peptide small molecule integrin αvβ3 antagonist and a near-infrared fluorochrome. Mice were injected with probe ([…], IV) at 6 weeks post radiation and imaged 24 hrs later. Probe intensity was quantified using TrueQuant 3D software (VisSen Medicals).

[7] = system: bleomycin-induced ALI in C57/BL6 mice; experiment: Murine model of bleomycin-induced ALI; conditions: for animals alive by day 12 following bleomycin instillation: bleomycin 1.2 U/kg i.t.; for mice survived to 14 days: bleomycin + compound
Protocol: C57/BL6 mice received bleomycin (1.2 U/kg) or sterile saline administered i.t. (intratracheally) and were then treated with FTY720, (S)-FTY720-phosphonate, (0.1 mg/kg i.p.) or PBS vehicle 3× a week until harvesting. Mice were followed for 14 days to assess mortality rates and multiple indices of lung injury.

[8] = system: radiation-induced lung injury (RILI) in C57BL/6 mice; experiment: Murine model of RILI: BAL protein, BAL cell counts, BAL cytokines, EBD extravasation, body weight, lung histology; type: in vivo, mouse; conditions: for lung histology: inflammatory cell infiltration and interstitial edema induced by radiation: 0.1 mg/kg i.p. 2×/wk, 25 Gy; for lung histology: inflammatory cell infiltration and interstitial edema induced by radiation / BAL cell counts vs RILI-challenged controls / BAL protein vs RILI-challenged controls: 6 weeks; for BAL cell counts vs RILI-challenged controls / BAL protein vs RILI-challenged controls: 0.01 or 0.1 mg/kg i.p. 2×/wk from 1 wk before irradiation (20 Gy); for BAL cell counts vs RILI controls / BAL protein levels vs RILI controls: 3 times/wk from 1 wk before irradiation (20 Gy) up to 6 wks; for BAL cell counts vs RILI controls / BAL protein levels vs RILI controls / body weight loss after irradiation: simvastatin 10 mg/kg; for body weight loss after irradiation: analogs 0.1 mg/kg i.p., 3 times/wk from 1 wk before irradiation up to 6 wks
Protocol: Eight to 10-week-old C57BL/6J mice (Jackson Labs, Bar Harbor, Me.) were used for all studies in accordance with the University of Chicago Institutional Animal Care & Use Committee guidelines.
At the termination of each experiment, animals were euthanized by exsanguination under anesthesia in accordance with institutional guidelines. Both lungs were lavaged with 1.0 mL of Hank's buffered saline solution with the fluid allowed to equilibrate for 10 s before withdrawing. The pulmonary vasculature was perfused clear via the pulmonary artery with sterile phosphate-buffered saline (PBS). Both lungs were excised, weighed, and snap-frozen in liquid nitrogen for subsequent analysis. The BAL fluid collected was centrifuged at 500×g for 20 min at 4° C., and the supernatant was removed and recentrifuged at 12,000×g before snap-freezing. Cell pellets were resuspended in 0.5 mL of red blood cell lysis buffer (ACK Lysing Buffer; BioSource International, Camarillo, Calif.) for 20 min and then repelleted by centrifugation at 2500 rpm for 20 min at 4° C. The supernatant was decanted, and the cell pellet was resuspended in 0.2 mL of PBS for cellular analysis using a standard hemacytometer technique. A total of 300 BAL cells per slide were counted for cell differentials using a Diff-Quick-stained kit (Baxter Diagnostics, McGaw Park, Ill.). BAL protein concentrations were determined by a colorimetric BCA assay. Albumin concentrations in the BAL at 1:1000 and 1:100 dilutions, respectively, were quantitated by ELISA (Bethyl Labs, Montgomery, Tex.). To measure cytokines and chemokines, the BAL fluid was assayed with a Bioplex mouse cytokine kit (Bio-Rad, Hercules, Calif.) in accordance with the manufacturer's instructions.
All other chemicals were analytical or cell-culture grade and were obtained from various commercial sources. Evans Blue dye conjugated to albumin (EBA) was prepared by dissolving EBD to a concentration of 0.5% (5 mg/mL or 5.2 mM) in phosphate-buffered saline (PBS) (Ca^2+-Mg^2+ free; Invitrogen Corporation, Carlsbad, Calif.). To this solution, BSA was added to a final concentration of 4% (40 mg/mL or 0.6 mM), mixed well by stirring with a magnetic bar, allowed to stand for 30 min, and then sterile-filtered through a 0.22-μm syringe filter. The conjugate was stored in small aliquots at −80° C. To prevent cross-contamination, each aliquot was used only once in one animal and then discarded. 4, 6, 8, or 12 weeks after irradiation, the animals were injected with EBA via the jugular vein. At the end of exposure, the pulmonary circulation was flushed and lungs were harvested. Formamide extracts of lungs were prepared, with the initial modification that the homogenates were centrifuged at 12,000×g. Centrifugation at this relative centrifugal force (RCF) produced a compact pellet that allowed accurate measurement of the recovered volumes. Accurate estimation of such volumes is critical for calculating the final tissue dilution factor. Lungs, kidneys, and hearts from mice that were not injected with EBA were similarly extracted, to calculate the tissue-specific correction factors. […] Linear regression equations between absorbance at 740 nm (X) and 620 nm (Y) in tissue extracts of animals untreated with EBA were considered to be the tissue-specific correction factors. […] The EB concentration read in mg/mL was converted to μg/g wet weight of lungs using the dilution factor of the original homogenate as described above.
Eight to 10-week-old C57BL/6J mice (Jackson Labs, Bar Harbor, Me.) were used for all studies in accordance with the University of Chicago Institutional Animal Care & Use Committee guidelines. […] (FIG. 4A). Bronchoalveolar lavage (BAL) was performed as described above. BAL protein concentrations were determined by a colorimetric BCA assay. Albumin concentrations in the BAL at 1:1000 and 1:100 dilutions, respectively, were quantitated by ELISA (Bethyl Labs, Montgomery, Tex.).

T1 sequence (P21453 whole entry): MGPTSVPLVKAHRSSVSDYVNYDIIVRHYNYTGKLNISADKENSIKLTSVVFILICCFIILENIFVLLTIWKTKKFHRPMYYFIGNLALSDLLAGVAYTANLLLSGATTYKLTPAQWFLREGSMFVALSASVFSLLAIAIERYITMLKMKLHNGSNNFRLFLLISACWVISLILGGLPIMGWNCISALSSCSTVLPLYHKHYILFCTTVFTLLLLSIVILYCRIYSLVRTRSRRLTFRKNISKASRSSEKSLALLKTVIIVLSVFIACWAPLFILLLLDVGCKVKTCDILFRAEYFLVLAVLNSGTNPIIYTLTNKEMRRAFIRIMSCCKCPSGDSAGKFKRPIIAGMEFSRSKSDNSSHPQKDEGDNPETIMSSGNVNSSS

CCCCCCCCc1ccc(CCC(N)(CO)CO)cc1 [FTY720, 2-amino-2-[2-(4-octylphenyl)ethyl]propane-1,3-diol]
ubiquitination of S1PR1 at 2 h [1]: significant ubiquitination | ubiquitination of S1PR1 at 1 h [1]: only slight ubiquitination | activation of β-arrestin (blue/green emission ratio) [2]: strongly activated | S1PR1 expression level compared to control [3]: 35.0% | % Inhibition of Maximal TER Response (of Agonist-Only Control), PTX [4]: 84.0 (±9.1) % | % Inhibition of Maximal TER Response (of Agonist-Only Control), MβCD [4]: 88.1 (±5.6) % | % Inhibition of Maximal TER Response (of Agonist-Only Control), Gen [4]: 86.2 (±10.7) % | capillary leak as total BAL protein, relative to PBS control ([5]; 18 h): reduction in permeability by 1S was comparable to that achieved by S1P or FTY720 | peripheral blood leukocyte and lymphocyte levels relative to PBS controls [5]: does not suppress circulating WBC levels | radiation-induced probe extravasation (probe intensity), FMT imaging [6]: no evidence of protection | animals alive by day 12 following bleomycin instillation ([7]; 0.1 mg/kg i.p. 3× a week): 17% | mice survived to 14 days [7]: 1 out of the 6 | lung histology: inflammatory cell infiltration and interstitial edema induced by radiation [8]: to a lesser extent | BAL cell counts vs RILI-challenged controls [8]: did not confer significant protection | BAL protein vs RILI-challenged controls [8]: did not confer significant protection | BAL cell counts vs RILI controls [8]: did not confer significant protection | BAL protein levels vs RILI controls [8]: did not confer significant protection | body weight loss after irradiation [8]: did not show any beneficial effect

CCCCCCCCc1ccc(CC[C@@](N)(CO)CCP(=O)(O)O)cc1 [1S, (S)-3-amino-3-(hydroxymethyl)-5-(4-octylphenyl)pentylphosphonic acid]
ubiquitination of S1PR1 at 2 h [1]: does not induce ubiquitination | ubiquitination of S1PR1 at 1 h [1]: only slight ubiquitination | activation of β-arrestin (blue/green emission ratio) [2]: only slightly activated | S1PR1 expression level compared to control [3]: 87.6% | S1PR1 expression, agonist without MG132 ([3]; 1 μM, 4 h (FIG. 18)): 89.5% | S1PR1 expression, agonist after MG132 pretreatment ([3]; MG132 10 μM 2 h, then 1 μM agonist 4 h): 99.2% | % Inhibition of Maximal TER Response (of Agonist-Only Control), PTX [4]: 92.8 (±2.6) % | % Inhibition of Maximal TER Response (of Agonist-Only Control), MβCD [4]: 97.2 (±0.8) % | % Inhibition of Maximal TER Response (of Agonist-Only Control), Gen [4]: 51.9 (±21.0) % | capillary leak as total BAL protein, relative to PBS control ([5]; 18 h): significantly reduced capillary leak | peripheral blood leukocyte and lymphocyte levels relative to PBS controls [5]: does not further alter peripheral blood leukocyte and lymphocyte levels | BAL WBC accumulation ([5]; i.p. 1 h after LPS, 18 h): significantly reduced | LPS-induced albumin leakage into BAL ([5]; i.p. 1 h after LPS, 18 h): significantly reduced | LPS-induced albumin leakage into lung tissue ([5]; i.p. 1 h after LPS, 18 h): significantly reduced | lung tissue MPO activity ([5]; i.p. 1 h after LPS, 18 h): significantly reduced | hematologic toxicity ([5]; mouse, in vivo): without apparent hematologic toxicity | comparison with 1R, 2R, 2S in the LPS model ([5]; preliminary studies, data not shown): superior to the other barrier-promoting analogs | radiation-induced probe extravasation (probe intensity), FMT imaging [6]: significant decreases | BAL protein after 14 days, compared to FTY720 ([7]; 0.1 mg/kg i.p. 3× a week): Decreased BAL protein | animals alive by day 12 following bleomycin instillation ([7]; 0.1 mg/kg i.p. 3× a week): 83% | mice survived to 14 days [7]: 5 out of 6 | lung histology: inflammatory cell infiltration and interstitial edema induced by radiation [8]: markedly attenuated | BAL cell counts vs RILI-challenged controls [8]: significant decreases | BAL protein vs RILI-challenged controls [8]: significant decreases | BAL cell counts vs RILI controls [8]: significant decreases | BAL protein levels vs RILI controls [8]: significant decreases | body weight loss after irradiation [8]: did not lose weight
